Results: ChEMBL document CHEMBL1143511, “Antitubercular agents. Part 1: synthesis of phthalimido- and naphthalimido-linked phenazines as new prototype antitubercular agents” (2005)
≈ marks a conversion by molar mass, not a printed value.

How the values were obtained:
Assay type in all cases: functional
[1] = test system: Mycobacterium tuberculosis; experiment: Minimum inhibitory concentration tested against Mycobacterium tuberculosis H37Rv ATCC 27294
[2] = test system: Mycobacterium intracellulare; experiment: Minimum inhibitory concentration tested against Mycobacterium intracellular ATCC 13950
[3] = test system: Mycobacterium tuberculosis; experiment: Minimum inhibitory concentration tested against Mycobacterium tuberculosis sensitive clinical isolates
[4] = test system: Mycobacterium avium; experiment: Minimum inhibitory concentration tested against Mycobacterium avium ATCC 49601
[5] = test system: Mycobacterium tuberculosis; experiment: Minimum inhibitory concentration tested against Mycobacterium tuberculosis sensitive clinical isolates; Range:1-2 ug/ml
[6] = test system: Mycobacterium tuberculosis; experiment: Minimum inhibitory concentration tested against Mycobacterium tuberculosis sensitive clinical isolates; Range 8-16 ug/mL
[7] = test system: Mycobacterium tuberculosis; experiment: Minimum inhibitory concentration tested against Mycobacterium tuberculosis sensitive clinical isolates; Range:1-4 ug/ml
[8] = test system: Mycobacterium tuberculosis; experiment: Minimum inhibitory concentration tested against Mycobacterium tuberculosis sensitive clinical isolates; Range 0.125-0.25 ug/ml

How did the MIC [1] turn out when `O=C1c2cccc3cccc(c23)C(=O)N1CCCCCN1CCN(CC/N=c2/cc3n(-c4ccc(Cl)cc4)c4ccccc4nc-3cc2Nc2ccc(Cl)cc2)CC1` was run?
Its MIC is over 16 µg/mL.

What about the MIC [2] of the same compound?
Its MIC is over 16 µg/mL.

And the MIC [3]?
Its MIC is over 16 µg/mL.

What about the MIC [4] of the same compound?
The MIC was over 16 µg/mL.

With `O=C1c2ccccc2C(=O)N1CCCCCCN1CCN(CC/N=c2/cc3n(-c4ccc(Cl)cc4)c4ccccc4nc-3cc2Nc2ccc(Cl)cc2)CC1` as the compound, how does the MIC [1] read?
The MIC was 1 µg/mL (≈ 1.29 µM).

What about the MIC [2] of the same compound?
Its MIC is 8 µg/mL (≈ 10.4 µM).

And the MIC [5]?
The MIC was 2 µg/mL (≈ 2.59 µM).

What about the MIC [4] of the same compound?
Its MIC is 16 µg/mL (≈ 20.7 µM).

For `O=C1c2cccc3cccc(c23)C(=O)N1CCCCCCN1CCN(CC/N=c2/cc3n(-c4ccc(Cl)cc4)c4ccccc4nc-3cc2Nc2ccc(Cl)cc2)CC1`, which MIC [6] is on record?
Its MIC is 16 µg/mL (≈ 19.4 µM).

And the MIC [1]?
Its MIC is 16 µg/mL (≈ 19.4 µM).

What about the MIC [2] of the same compound?
The MIC was over 16 µg/mL.

And the MIC [4]?
The MIC was over 16 µg/mL.

What does the source list for `O=C1c2ccccc2C(=O)N1CCCCCN1CCN(CC/N=c2/cc3n(-c4ccc(Cl)cc4)c4ccccc4nc-3cc2Nc2ccc(Cl)cc2)CC1`?
MIC [1]: 1 µg/mL (≈ 1.32 µM); MIC [7]: 4 µg/mL (≈ 5.27 µM); MIC [2]: 8 µg/mL (≈ 10.5 µM); MIC [4]: 16 µg/mL (≈ 21.1 µM)

Which results are given for `O=C1c2cccc3cccc(c23)C(=O)N1CCCCN1CCN(CC/N=c2/cc3n(-c4ccc(Cl)cc4)c4ccccc4nc-3cc2Nc2ccc(Cl)cc2)CC1`?
MIC [1]: > 16 µg/mL; MIC [2]: > 16 µg/mL; MIC [3]: > 16 µg/mL; MIC [4]: > 16 µg/mL

Which MIC [8] does the source give for `NNC(=O)c1ccncc1` [ISONIAZID] here?
Its MIC is 0.25 µg/mL (≈ 1.82 µM).

What about the MIC [1] of the same compound?
The MIC was 0.25 µg/mL (≈ 1.82 µM).

What about the MIC [2] of the same compound?
The MIC was 8 µg/mL (≈ 58.3 µM).

What about the MIC [4] of the same compound?
Its MIC is over 16 µg/mL.

Which MIC [1] does the source give for `O=C1c2ccccc2C(=O)N1CCCCN1CCN(CC/N=c2/cc3n(-c4ccc(Cl)cc4)c4ccccc4nc-3cc2Nc2ccc(Cl)cc2)CC1` here?
Its MIC is over 16 µg/mL.

And the MIC [2]?
The MIC was over 16 µg/mL.

What about the MIC [3] of the same compound?
The MIC was over 16 µg/mL.

And the MIC [4]?
The MIC was over 16 µg/mL.

With `O=C1c2ccccc2C(=O)N1CCCN1CCN(CC/N=c2/cc3n(-c4ccc(Cl)cc4)c4ccccc4nc-3cc2Nc2ccc(Cl)cc2)CC1` as the compound, how does the MIC [1] read?
The MIC was over 16 µg/mL.

What about the MIC [2] of the same compound?
Its MIC is over 16 µg/mL.

What about the MIC [3] of the same compound?
Its MIC is over 16 µg/mL.

What about the MIC [4] of the same compound?
Its MIC is over 16 µg/mL.

What does the source list for `O=C1c2cccc3cccc(c23)C(=O)N1CCCN1CCN(CC/N=c2/cc3n(-c4ccc(Cl)cc4)c4ccccc4nc-3cc2Nc2ccc(Cl)cc2)CC1`?
MIC [1]: > 16 µg/mL; MIC [2]: > 16 µg/mL; MIC [3]: > 16 µg/mL; MIC [4]: > 16 µg/mL
